Experiments:
U937 cells = assay: U937 cell inhibition assay (WST-1 cell viability); type: cell-based; conditions: for times more potent in the monocytic cell line (U937) than the non-monocytic cell line (Hut78): U937 versus Hut78; for potency in the U937 cellular assay compared with the parent compound: versus parent compound A
Method: (§1) Cancer cell lines (U937 and HUT) growing in log phase were harvested and seeded at 1000-2000 cells/well (100 μl final volume) into 96-well tissue culture plates. Following 24 h of growth cells were treated with Compound. Plates were then re-incubated for a further 72-98 h before a WST-1 cell viability assay was conducted according to the suppliers (Roche Applied Science) instructions.
(§2) Data were expressed as a percentage inhibition of the control, measured in the absence of inhibitor, as follows:
(§3) % inhibition=100−[(S^i/S^o)×100]
(§4) where S^i is the signal in the presence of inhibitor and S^o is the signal in the presence of DMSO.
(§5) Dose response curves were generated from 8 concentrations (top final concentration 10 μM, with 3-fold dilutions), using 6 replicates.
(§6) IC50 values were determined by non-linear regression analysis, after fitting the results to the equation for sigmoidal dose response with variable slope (% activity against log concentration of Compound), using Graphpad Prism software.
(§7) IC50 results were allocated to one of 3 ranges as follows: […]

HUT78 cells = assay: HUT cell inhibition assay (WST-1 cell viability); type: cell-based; conditions: read-out: Inhibition of proliferation in HUT78 cells (IC50 nM)
Method: as §1, §2, §3, §4, §5, §6, §7

Row | Compound | times more potent in the monocytic cell line (U937) than the non-monocytic cell line (Hut78) (U937 cells) [times] | potency in the U937 cellular assay compared with the parent compound (U937 cells) | IC50 (HUT78 cells) [nM]
1 | O=C(CCc1ccc(CNC2(C(=O)OC3CCCC3)CCCC2)cc1)NO [Example 14, Cyclopentyl 1-({4-[3-hydroxyamino)-3-oxopropyl]benzyl}amino) cyclopentanecarboxylate] | 30 | significantly more potent | –
2 | CC(C)CC(C)(NCc1ccc(CCC(=O)NO)cc1)C(=O)OC1CCCC1 (racemic) [Example 16, Cyclopentyl N-{4-[3-(hydroxyamino)-3-oxopropyl]benzyl}-2-methyl-D,L-leucinate] | 30 | significantly more potent | 0.04
